From PubChem BioAssay (NCI)
Values joined by “and” are separate entries in the source; they are usually repeats but may differ in a detail not shown here. Equal values may be shown once.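 Grown in 96-well plates, cells were treated for 48 hours with each compound at five concentrations. Insufficient inhibition: endpoint recorded as highest concentration tested. GI50 is the concentration that inhibits growth by half. Definition used: TGI = concentration required for complete inhibition of growth.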

How the values were obtained:
Test in all cases: NCI tumour cell line growth inhibition, 48 h
786-0 renal = tested on: 786-0 renal
A498 renal = tested on: A498 renal
A549 NSCLC = tested on: A549 NSCLC
ACHN renal = tested on: ACHN renal
BT-549 breast = tested on: BT-549 breast
CAKI-1 renal = tested on: CAKI-1 renal
CCRF-CEM leukemia = tested on: CCRF-CEM leukemia
COLO 205 colon = tested on: COLO 205 colon
DU-145 prostate = tested on: DU-145 prostate
EKVX NSCLC = tested on: EKVX NSCLC
HCC-2998 colon = tested on: HCC-2998 colon
HCT-116 colon = tested on: HCT-116 colon
HCT-15 colon = tested on: HCT-15 colon
HOP-62 NSCLC = tested on: HOP-62 NSCLC
HOP-92 NSCLC = tested on: HOP-92 NSCLC
HS 578T breast = tested on: HS 578T breast
HT29 colon = tested on: HT29 colon
IGROV1 ovarian = tested on: IGROV1 ovarian
K-562 leukemia = tested on: K-562 leukemia
KM12 colon = tested on: KM12 colon
LOX IMVI melanoma = tested on: LOX IMVI melanoma
M14 melanoma = tested on: M14 melanoma
MALME-3M melanoma = tested on: MALME-3M melanoma
MCF7 breast = tested on: MCF7 breast
MDA-MB-231 breast = tested on: MDA-MB-231 breast
MDA-MB-435 = tested on: MDA-MB-435
MOLT-4 leukemia = tested on: MOLT-4 leukemia
NCI-H226 lung = tested on: NCI-H226 lung
NCI-H23 lung = tested on: NCI-H23 lung
NCI-H460 lung = tested on: NCI-H460 lung
NCI-H522 lung = tested on: NCI-H522 lung
NCI/ADR-RES ovarian = tested on: NCI/ADR-RES ovarian
OVCAR-3 ovarian = tested on: OVCAR-3 ovarian
OVCAR-4 ovarian = tested on: OVCAR-4 ovarian
OVCAR-5 ovarian = tested on: OVCAR-5 ovarian
OVCAR-8 ovarian = tested on: OVCAR-8 ovarian
PC-3 prostate = tested on: PC-3 prostate
RPMI-8226 leukemia = tested on: RPMI-8226 leukemia
RXF 393 renal = tested on: RXF 393 renal
SF-268 CNS = tested on: SF-268 CNS
SF-295 CNS = tested on: SF-295 CNS
SF-539 CNS = tested on: SF-539 CNS
SK-MEL-2 melanoma = tested on: SK-MEL-2 melanoma
SK-MEL-28 melanoma = tested on: SK-MEL-28 melanoma
SK-MEL-5 melanoma = tested on: SK-MEL-5 melanoma
SK-OV-3 ovarian = tested on: SK-OV-3 ovarian
SN12C renal = tested on: SN12C renal
SNB-19 CNS = tested on: SNB-19 CNS
SNB-75 CNS = tested on: SNB-75 CNS
SR leukemia = tested on: SR leukemia
SW-620 colon = tested on: SW-620 colon
T-47D breast = tested on: T-47D breast
TK-10 renal = tested on: TK-10 renal
U251 CNS = tested on: U251 CNS
UACC-257 melanoma = tested on: UACC-257 melanoma
UACC-62 melanoma = tested on: UACC-62 melanoma
UO-31 renal = tested on: UO-31 renal

For `CN[C@@H](Cc1cccc2ccccc12)C(=O)N[C@@H](CC(C)C)B(O)O`, the GI50 (786-0 renal) was 37 nM, the TGI (786-0 renal) was 180 nM and 67.1 nM and the GI50 (A498 renal) was 5.53 nM. For the same compound, the TGI (A498 renal) was 45.2 nM, the GI50 (A549 NSCLC) was 46.5 nM and the TGI (ACHN renal) was > 100000 nM. The TGI (BT-549 breast) was 24.3 nM, the TGI (CAKI-1 renal) was 27.2 nM and < 13.1 nM and the TGI (CCRF-CEM leukemia) was 35.4 nM. For the same compound, the GI50 (COLO 205 colon) was 42.7 nM, the TGI (COLO 205 colon) was 170 nM and the GI50 (DU-145 prostate) was 51.5 nM. The TGI (DU-145 prostate) was 219 nM and 315 nM, the GI50 (EKVX NSCLC) was 27.7 nM and the TGI (EKVX NSCLC) was 209 nM and 47.6 nM. For the same compound, the GI50 (HCC-2998 colon) was 16.2 nM, the TGI (HCC-2998 colon) was 29.8 nM and the GI50 (HCT-116 colon) was 11.8 nM. The TGI (HCT-116 colon) was 28.5 nM, the GI50 (HCT-15 colon) was 17.2 nM and the TGI (HCT-15 colon) was 45.9 nM and 406 nM. For the same compound, the GI50 (HOP-62 NSCLC) was 37.1 nM, the TGI (HOP-62 NSCLC) was 129 nM and 36.8 nM and the GI50 (HOP-92 NSCLC) was 17.8 nM. The TGI (HOP-92 NSCLC) was 39.5 nM, the TGI (HS 578T breast) was 57.7 nM and the TGI (HT29 colon) was 25 nM. The GI50 (IGROV1 ovarian) was 18.7 nM, the TGI (IGROV1 ovarian) was 55.4 nM and 68.1 nM and the GI50 (K-562 leukemia) was 22.8 nM. For the same compound, the TGI (K-562 leukemia) was 95.2 nM, the GI50 (KM12 colon) was 20.3 nM and the TGI (KM12 colon) was 44.4 nM and 19.3 nM. The GI50 (LOX IMVI melanoma) was 13.5 nM, the TGI (LOX IMVI melanoma) was 32.4 nM and the TGI (M14 melanoma) was 145 nM. The GI50 (MALME-3M melanoma) was 12.1 nM, the TGI (MALME-3M melanoma) was 33.6 nM and 21.4 nM and the GI50 (MCF7 breast) was 6.37 nM. The GI50 (MDA-MB-231 breast) was 20.1 nM, the TGI (MDA-MB-231 breast) was 44.6 nM and < 14.5 nM and the GI50 (MDA-MB-435) was 4.25 nM. The TGI (MDA-MB-435) was 14.7 nM, the TGI (MOLT-4 leukemia) was 46.6 nM and the TGI (NCI-H226 lung) was 7.22 nM. For the same compound, the GI50 (NCI-H23 lung) was 16 nM, the TGI (NCI-H23 lung) was 38.7 nM and < 11.4 nM and the GI50 (NCI-H460 lung) was 26.6 nM. For the same compound, the TGI (NCI-H460 lung) was 105 nM and 55.1 nM, the TGI (NCI-H522 lung) was < 10.3 nM and the GI50 (NCI/ADR-RES ovarian) was 41.2 nM. For the same compound, the TGI (NCI/ADR-RES ovarian) was 197 nM, the GI50 (OVCAR-3 ovarian) was 15.8 nM and the TGI (OVCAR-3 ovarian) was 37 nM and < 14.7 nM. For the same compound, the GI50 (OVCAR-4 ovarian) was 23.9 nM, the GI50 (OVCAR-5 ovarian) was 18.7 nM and the TGI (OVCAR-5 ovarian) was 51.8 nM and 20.4 nM. For the same compound, the GI50 (OVCAR-8 ovarian) was 25.9 nM, the TGI (OVCAR-8 ovarian) was 84.4 nM and the GI50 (PC-3 prostate) was 39.1 nM. The TGI (PC-3 prostate) was 154 nM and 31 nM, the GI50 (RPMI-8226 leukemia) was 5.47 nM and the TGI (RPMI-8226 leukemia) was 43.9 nM. It also gave a GI50 (RXF 393 renal) of 18 nM, a TGI (RXF 393 renal) of 35.3 nM and a GI50 (SF-268 CNS) of 15.4 nM. For the same compound, the TGI (SF-268 CNS) was 35.3 nM, the GI50 (SF-295 CNS) was 23.1 nM and the TGI (SF-295 CNS) was 82.8 nM and 15.6 nM. The GI50 (SF-539 CNS) was 4.73 nM, the TGI (SF-539 CNS) was 16.7 nM and the GI50 (SK-MEL-2 melanoma) was 23.7 nM. For the same compound, the TGI (SK-MEL-2 melanoma) was 59.9 nM and 104 nM, the GI50 (SK-MEL-28 melanoma) was 11.9 nM and the TGI (SK-MEL-28 melanoma) was 27.1 nM. For the same compound, the GI50 (SK-MEL-5 melanoma) was 24.9 nM, the TGI (SK-MEL-5 melanoma) was 103 nM and 12.8 nM and the GI50 (SK-OV-3 ovarian) was 94.4 nM. For the same compound, the TGI (SK-OV-3 ovarian) was > 100000 nM, the GI50 (SN12C renal) was 16.7 nM and the TGI (SN12C renal) was 72.2 nM and 18.5 nM. For the same compound, the GI50 (SNB-19 CNS) was 35.6 nM, the GI50 (SNB-75 CNS) was 22.7 nM and the TGI (SNB-75 CNS) was 61.7 nM. It also gave a GI50 (SR leukemia) of 16.3 nM, a TGI (SR leukemia) of 281 nM and a GI50 (SW-620 colon) of 12 nM. The TGI (SW-620 colon) was 26 nM, the GI50 (T-47D breast) was 15.6 nM and the TGI (T-47D breast) was 37.2 nM. The GI50 (TK-10 renal) was 25.6 nM, the TGI (TK-10 renal) was 82.1 nM and the GI50 (U251 CNS) was 30.3 nM. For the same compound, the TGI (U251 CNS) was 119 nM and 43.8 nM, the GI50 (UACC-257 melanoma) was 16.9 nM and 13.1 nM and the TGI (UACC-257 melanoma) was 33.7 nM and 40 nM. The GI50 (UACC-62 melanoma) was 17 nM, the TGI (UACC-62 melanoma) was 34.4 nM and < 15.4 nM and the GI50 (UO-31 renal) was 17.9 nM. For the same compound, the TGI (UO-31 renal) was 59 nM and < 13.1 nM.
